Format in all cases: in vivo, pig
For data set [1], the system named is nucleus pulposus of the L3-4 intervertebral disc. The experiment in a line: Flexion stiffness of the injected L3-4 intervertebral disc, Example 1. As to conditions: injected L 3-4 vs non-injected L 2-3 and L 4-5; seven days. The procedure:
Access to the L4-5 intervertebral disc was obtained through a lateral incision between the lowest rib and the iliac crest on the left side of each pig. Thereafter, the L3-4 intervertebral disc was incised with a scalpel. […] The composition was injected in a single step at a single occasion.

Data set [2] shares this test system. The experiment in a line: Dimension of the disc space after injection, Example 1. The procedure: 110. performing a cross-section of the discs and measuring the length (anterio-posterior direction) and the width (bilateral direction) of the disc space. Two pigs were anesthetized and placed on their right side. Access to the L4-5 intervertebral disc was obtained through a lateral incision between the lowest rib and the iliac crest on the left side of each pig. Thereafter, the L3-4 intervertebral disc was incised with a scalpel. […] The composition was injected in a single step at a single occasion. The intervertebral discs (L2-3, L3-4, L4-5) were cross-sectioned and the length of the disc space (anterio-posterior direction) and the width (bilateral direction) of the disc space were measured by calipers. In FIGS. 5 and 6, an intervertebral disc is schematically shown in cross-section. The intervertebral disc comprises the annulus fibrosus 10, and a disc space defined by the annulus fibrosus and comprising the nucleus pulposus 11.

Data set [3] is described as follows: Tolerability and adverse reactions after intradiscal injection, Example 1. The protocol: Two pigs were anesthetized and placed on their right side. Access to the L4-5 intervertebral disc was obtained through a lateral incision between the lowest rib and the iliac crest on the left side of each pig. Thereafter, the L3-4 intervertebral disc was incised with a scalpel.
The composition was injected in a single step at a single occasion.
At harvest, the pigs were killed.
The injection site was observed by the naked eye. […] The segment of the vertebral column extending from the lumbar vertebra L2 to the sacral vertebra S1 was removed. The facet joints were removed, thus allowing full flexibility of the discs with no restraints from other structures.

[4] abbreviates: injected L 3-4 vs non-injected L2-3, L4-5, seven days.

On to `CC(O)C(=O)O` (stereo not drawn) [lactic acid], for which the “Balanced value (flexion stiffness) of injected discs compared with non-injected adjacent discs” value in data set [1] is listed as “much smaller balanced value”. Also, in data set [2] (FIG. 7, injected L3-4 vs non-injected L2-3 and L4-5, naked eye), the “Cross-sectional area of the disc space compared with non-injected discs” value is recorded as “much smaller cross-sectional area”. Further, in data set [2] (setting [4]), the “Average anterio-posterior length of the disc space compared with non-injected discs” value was “significantly lower” and the “Average bilateral width of the disc space compared with non-injected discs” value is given as “significantly lower”. Besides, the “Adverse reaction such as decreased mobility or vocalization” value in data set [3] (both pigs, period of seven days until harvest, 0.2 mL of 1.34 mol/L, pH 1.8, into L3-4 disc) is “no adverse reaction”. Besides, the “Adverse reaction at the injection site, such as bleedings, inflammation or necrosis” value in data set [3] (naked eye at harvest, seven days after injection) is given as “No adverse reaction at the injection site”.

For the origin of these results see patent publication US10265284B2, “Composition for use in the treatment of intervertebral disc-related pain” (STAYBLE THERAPEUTICS AB, priority 2015, dated 2019).
